Test results taken from US6355799B1, “Substituted benzene compounds, process for their preparation, and herbicidal and defoliant compositions containing them” (ISK Americas Incorporated, priority 1997, dated 2002).

Columns and labels:
Format in all cases: in vivo
[1] = test system: field corn (Zea mays L., var. Dekalb 535, CORN); assay: Post-emerge test, crop safety; settings: post-emerge, 14 days after application, rating scale 0-100
Procedure, shortened: (§1)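 Fourteen days after spraying, crop and weed injury was graded visually from 0, no effect, to 100, every plant dead. Test substances were dissolved in acetone and applied at 15–1000 g ai/ha with a flat-fan nozzle. Application was either pre-emergence, one day after sowing, or post-emergence at the 2–3 leaf stage.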

[2] = test system: upland rice (Oryza sp., var. Tebonnet, RICE); assay: Post-emerge test, crop safety; settings: post-emerge, 14 days after application, rating scale 0-100
Procedure, shortened: as §1

[3] = test system: barnyardgrass (Echinochloa crus-galli, ECHCG); assay: Post-emerge test, greenhouse herbicide activity screening; settings: post-emerge, 14 days after application, rating scale 0-100
Procedure, shortened: (§2)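 Applied at 15–1000 g ai/ha from acetone in 187 l/ha spray volume. Post-emergence applications included 0.25% v/v non-ionic surfactant and reached plants sown 8–21 days before. Pre-emergence applications were incorporated by surface watering. Efficacy or crop damage was rated on a 0–100 scale after 14 days.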

[4] = test system: velvetleaf (Abutilon theophrasti, ABUTH); assay: as above; settings: post-emerge, 14 days after application, rating scale 0-100
Procedure, shortened: as §2

[5] = test system: ivyleaf morningglory (Ipomoea hederacea, IPOHE); assay: as above; settings: post-emerge, 14 days after application, rating scale 0-100
Procedure, shortened: as §2

[6] = test system: sicklepod (Cassia obtusifolia, CASOB); assay: as above; settings: post-emerge, 14 days after application, rating scale 0-100
Procedure, shortened: as §2

[7] = test system: johnsongrass (Sorghum halepense, SORHA); assay: as above; settings: post-emerge, 14 days after application, rating scale 0-100
Procedure, shortened: as §2

[8] = test system: redroot pigweed (Amaranthus retroflexus, AMARE); assay: as above; settings: post-emerge, 14 days after application
Procedure, shortened: as §2

[9] = test system: lambsquarters (Chenopodium album, CHEAL); assay: as above; settings: post-emerge, 14 days after application, rating scale 0-100
Procedure, shortened: as §2

[10] = test system: large crabgrass (Digitaria sanguinalis, DIGSA); assay: as above; settings: post-emerge, 14 days after application, rating scale 0-100
Procedure, shortened: as §2

[11] = test system: green foxtail (Setaria viridis, SETVI); assay: as above; settings: post-emerge, 14 days after application, rating scale 0-100
Procedure, shortened: as §2

[12] = test system: barnyardgrass (Echinochloa crus-galli, ECHCG); assay: Pre-emerge test, greenhouse herbicide activity screening; settings: for Pre-emerge Herbicidal Activity, phytotoxicity rating (0-100), ECHCG: rated 14 days after application, 0 = no damage, 100 = complete death; for Pre-emerge Herbicidal Activity ECHCG: phytotoxicity rating 0-100, 14 days after application
Procedure, shortened: as §1

[13] = test system: velvetleaf (Abutilon theophrasti, ABUTH); assay: as above; settings: for Pre-emerge Herbicidal Activity, phytotoxicity rating (0-100), ABUTH: rated 14 days after application, 0 = no damage, 100 = complete death; for Pre-emerge Herbicidal Activity ABUTH: phytotoxicity rating 0-100, 14 days after application
Procedure, shortened: as §1

[14] = test system: ivyleaf morningglory (Ipomoea hederacea, IPOHE); assay: as above; settings: for Pre-emerge Herbicidal Activity, phytotoxicity rating (0-100), IPOHE: rated 14 days after application, 0 = no damage, 100 = complete death; for Pre-emerge Herbicidal Activity IPOHE: phytotoxicity rating 0-100, 14 days after application
Procedure, shortened: as §1

[15] = test system: sicklepod (Cassia obtusifolia, CASOB); assay: as above; settings: for Pre-emerge Herbicidal Activity, phytotoxicity rating (0-100), CASOB: rated 14 days after application, 0 = no damage, 100 = complete death; for Pre-emerge Herbicidal Activity CASOB: phytotoxicity rating 0-100, 14 days after application
Procedure, shortened: as §1

[16] = test system: johnsongrass (Sorghum halepense, SORHA); assay: as above; settings: for Pre-emerge Herbicidal Activity, phytotoxicity rating (0-100), SORHA: rated 14 days after application, 0 = no damage, 100 = complete death; for Pre-emerge Herbicidal Activity SORHA: phytotoxicity rating 0-100, 14 days after application
Procedure, shortened: as §1

[17] = test system: lambsquarters (Chenopodium album, CHEAL); assay: as above; settings: for Pre-emerge Herbicidal Activity, phytotoxicity rating (0-100), CHEAL: rated 14 days after application, 0 = no damage, 100 = complete death; for Pre-emerge Herbicidal Activity CHEAL: phytotoxicity rating 0-100, 14 days after application
Procedure, shortened: as §1

[18] = test system: large crabgrass (Digitaria sanguinalis, DIGSA); assay: as above; settings: for Pre-emerge Herbicidal Activity, phytotoxicity rating (0-100), DIGSA: rated 14 days after application, 0 = no damage, 100 = complete death; for Pre-emerge Herbicidal Activity DIGSA: phytotoxicity rating 0-100, 14 days after application
Procedure, shortened: as §1

[19] = test system: green foxtail (Setaria viridis, SETVI); assay: as above; settings: for Pre-emerge Herbicidal Activity, phytotoxicity rating (0-100), SETVI: rated 14 days after application, 0 = no damage, 100 = complete death; for Pre-emerge Herbicidal Activity SETVI: phytotoxicity rating 0-100, 14 days after application
Procedure, shortened: as §1

[20] = test system: field corn (Zea mays L., var. Dekalb 535, CORN); assay: Pre-emerge test, crop safety; settings: for Pre-emerge phytotoxicity rating (0-100), crop damage, CORN: rated 14 days after application, 0 = no damage, 100 = complete death; for Pre-emerge Herbicidal Activity CORN: crop damage rating 0-100, 14 days after application
Procedure, shortened: (§3)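 Sandy loam pots; pre-emerge: sown 1 d pre-spray, surface-watered after, then bottom-watered. Post-emerge: sown 8–21 d before, 2–3 leaf stage, + 0.25% v/v NIS, bottom-watered. Acetone, 187 l/ha track spray, 15–1000 g ai/ha. 0–100 injury score, day 14.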

[21] = test system: upland rice (Oryza sp., var. Tebonnet, RICE); assay: Pre-emerge test, crop safety; settings: for Pre-emerge phytotoxicity rating (0-100), crop damage, RICE: rated 14 days after application, 0 = no damage, 100 = complete death; for Pre-emerge Herbicidal Activity RICE: crop damage rating 0-100, 14 days after application
Procedure, shortened: as §3

[22] = test system: redroot pigweed (Amaranthus retroflexus, AMARE); assay: Pre-emerge test, greenhouse herbicide activity screening; settings: for Pre-emerge Herbicidal Activity, phytotoxicity rating (0-100), AMARE: rated 14 days after application, 0 = no damage, 100 = complete death; for Pre-emerge Herbicidal Activity AMARE: phytotoxicity rating 0-100, 14 days after application
Procedure, shortened: as §3

[23] = 250 g ai/ha, rating scale 0-100

## COc1c(Cl)cc(F)c(-n2c(=O)cc(C(F)(F)F)n(C)c2=O)c1NC(=O)C=Cc1ccco1 [2-92]
[1]; 63 g ai/ha
  phytotoxicity rating CORN: 0
[1]; 250 g ai/ha
  phytotoxicity rating CORN: 30
[2]; 63 g ai/ha
  phytotoxicity rating RICE: 10
[2]; 250 g ai/ha
  phytotoxicity rating RICE: 60
[3]; 63 g ai/ha
  phytotoxicity rating ECHCG: 0
[3]; 250 g ai/ha
  phytotoxicity rating ECHCG: 0
[4]; 63 g ai/ha
  phytotoxicity rating ABUTH: 100
[4]; 250 g ai/ha
  phytotoxicity rating ABUTH: 100
[5]; 63 g ai/ha
  phytotoxicity rating IPOHE: 20
[5]; 250 g ai/ha
  phytotoxicity rating IPOHE: 100
[6]; 63 g ai/ha
  phytotoxicity rating CASOB: 0
[6]; 250 g ai/ha
  phytotoxicity rating CASOB: 30
[7]; 63 g ai/ha
  phytotoxicity rating SORHA: 0
[7]; 250 g ai/ha
  phytotoxicity rating SORHA: 0
[8]; 63 g ai/ha, rating scale 0-100
  phytotoxicity rating AMARE: 20
[8]; [23]
  phytotoxicity rating AMARE: 50
[9]; 63 g ai/ha
  phytotoxicity rating CHEAL: 20
[9]; 250 g ai/ha
  phytotoxicity rating CHEAL: 80
[10]; 63 g ai/ha
  phytotoxicity rating DIGSA: 0
[10]; 250 g ai/ha
  phytotoxicity rating DIGSA: 0
[11]; 63 g ai/ha
  phytotoxicity rating SETVI: 0
[11]; 250 g ai/ha
  phytotoxicity rating SETVI: 0
[12]; 63 g ai/ha
  Pre-emerge Herbicidal Activity, phytotoxicity rating (0-100), ECHCG: 0
[12]; 250 g ai/ha
  Pre-emerge Herbicidal Activity, phytotoxicity rating (0-100), ECHCG: 20
[13]; 63 g ai/ha
  Pre-emerge Herbicidal Activity, phytotoxicity rating (0-100), ABUTH: 100
[13]; 250 g ai/ha
  Pre-emerge Herbicidal Activity, phytotoxicity rating (0-100), ABUTH: 100
[14]; 63 g ai/ha
  Pre-emerge Herbicidal Activity, phytotoxicity rating (0-100), IPOHE: 30
[14]; 250 g ai/ha
  Pre-emerge Herbicidal Activity, phytotoxicity rating (0-100), IPOHE: 100
[15]; 63 g ai/ha
  Pre-emerge Herbicidal Activity, phytotoxicity rating (0-100), CASOB: 40
[15]; 250 g ai/ha
  Pre-emerge Herbicidal Activity, phytotoxicity rating (0-100), CASOB: 100
[16]; 63 g ai/ha
  Pre-emerge Herbicidal Activity, phytotoxicity rating (0-100), SORHA: 0
[16]; 250 g ai/ha
  Pre-emerge Herbicidal Activity, phytotoxicity rating (0-100), SORHA: 40
[17]; 63 g ai/ha
  Pre-emerge Herbicidal Activity, phytotoxicity rating (0-100), CHEAL: 100
[17]; 250 g ai/ha
  Pre-emerge Herbicidal Activity, phytotoxicity rating (0-100), CHEAL: 100
[18]; 63 g ai/ha
  Pre-emerge Herbicidal Activity, phytotoxicity rating (0-100), DIGSA: 0
[18]; 250 g ai/ha
  Pre-emerge Herbicidal Activity, phytotoxicity rating (0-100), DIGSA: 20
[19]; 63 g ai/ha
  Pre-emerge Herbicidal Activity, phytotoxicity rating (0-100), SETVI: 30
[19]; 250 g ai/ha
  Pre-emerge Herbicidal Activity, phytotoxicity rating (0-100), SETVI: 90
[20]; 63 g ai/ha
  Pre-emerge phytotoxicity rating (0-100), crop damage, CORN: 0
[20]; 250 g ai/ha
  Pre-emerge phytotoxicity rating (0-100), crop damage, CORN: 20
[21]; 63 g ai/ha
  Pre-emerge phytotoxicity rating (0-100), crop damage, RICE: 0
[21]; 250 g ai/ha
  Pre-emerge phytotoxicity rating (0-100), crop damage, RICE: 10
[22]; 63 g ai/ha
  Pre-emerge Herbicidal Activity, phytotoxicity rating (0-100), AMARE: 50
[22]; 250 g ai/ha
  Pre-emerge Herbicidal Activity, phytotoxicity rating (0-100), AMARE: 100

## COc1c(Cl)cc(F)c(-n2c(=O)cc(C(F)(F)F)n(C)c2=O)c1NC(=O)OCc1ccc(C)c(C)c1 [4-26]
[1]; 63 g ai/ha
  phytotoxicity rating CORN (crop damage): 5
[1]; 250 g ai/ha
  phytotoxicity rating CORN (crop damage): 20
[2]; 63 g ai/ha
  phytotoxicity rating RICE (crop damage): 15
[2]; 250 g ai/ha
  phytotoxicity rating RICE (crop damage): 45
[3]; 63 g ai/ha
  phytotoxicity rating ECHCG: 10
[3]; 250 g ai/ha
  phytotoxicity rating ECHCG: 50
[4]; 63 g ai/ha
  phytotoxicity rating ABUTH: 100
[4]; 250 g ai/ha
  phytotoxicity rating ABUTH: 100
[5]; 63 g ai/ha
  phytotoxicity rating IPOHE: 100
[5]; 250 g ai/ha
  phytotoxicity rating IPOHE: 100
[6]; 63 g ai/ha
  phytotoxicity rating CASOB: 30
[6]; 250 g ai/ha
  phytotoxicity rating CASOB: 60
[7]; 63 g ai/ha
  phytotoxicity rating SORHA: 10
[7]; 250 g ai/ha
  phytotoxicity rating SORHA: 50
[8]; 63 g ai/ha, rating scale 0-100 (0 no damage, 100 complete death)
  phytotoxicity rating AMARE: 100
[8]; [23]
  phytotoxicity rating AMARE: 100
[9]; 63 g ai/ha
  phytotoxicity rating CHEAL: 90
[9]; 250 g ai/ha
  phytotoxicity rating CHEAL: 100
[10]; 63 g ai/ha
  phytotoxicity rating DIGSA: 20
[10]; 250 g ai/ha
  phytotoxicity rating DIGSA: 50
[11]; 63 g ai/ha
  phytotoxicity rating SETVI: 20
[11]; 250 g ai/ha
  phytotoxicity rating SETVI: 60
[12]; 63 g ai/ha
  Pre-emerge Herbicidal Activity ECHCG: 0
[12]; 250 g ai/ha
  Pre-emerge Herbicidal Activity ECHCG: 30
[13]; 63 g ai/ha
  Pre-emerge Herbicidal Activity ABUTH: 80
[13]; 250 g ai/ha
  Pre-emerge Herbicidal Activity ABUTH: 100
[14]; 63 g ai/ha
  Pre-emerge Herbicidal Activity IPOHE: 0
[14]; 250 g ai/ha
  Pre-emerge Herbicidal Activity IPOHE: 10
[15]; 63 g ai/ha
  Pre-emerge Herbicidal Activity CASOB: 0
[15]; 250 g ai/ha
  Pre-emerge Herbicidal Activity CASOB: 0
[16]; 63 g ai/ha
  Pre-emerge Herbicidal Activity SORHA: 0
[16]; 250 g ai/ha
  Pre-emerge Herbicidal Activity SORHA: 20
[17]; 63 g ai/ha
  Pre-emerge Herbicidal Activity CHEAL: 100
[17]; 250 g ai/ha
  Pre-emerge Herbicidal Activity CHEAL: 100
[18]; 63 g ai/ha
  Pre-emerge Herbicidal Activity DIGSA: 10
[18]; 250 g ai/ha
  Pre-emerge Herbicidal Activity DIGSA: 90
[19]; 63 g ai/ha
  Pre-emerge Herbicidal Activity SETVI: 75
[19]; 250 g ai/ha
  Pre-emerge Herbicidal Activity SETVI: 95
[20]; 63 g ai/ha
  Pre-emerge Herbicidal Activity CORN: 0
[20]; 250 g ai/ha
  Pre-emerge Herbicidal Activity CORN: 0
[21]; 63 g ai/ha
  Pre-emerge Herbicidal Activity RICE: 0
[21]; 250 g ai/ha
  Pre-emerge Herbicidal Activity RICE: 45
[22]; 63 g ai/ha
  Pre-emerge Herbicidal Activity AMARE: 70
[22]; 250 g ai/ha
  Pre-emerge Herbicidal Activity AMARE: 100
